The structures appear in SMILES notation.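 Growth conditions: 96-well plates. Treatment: test compound, 48 hours, 5 concentrations. Analysis: linear interpolation between bracketing concentrations; unreached endpoints set to highest concentration. TGI denotes the concentration required for complete inhibition of growth.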

The text below walks through data of PubChem BioAssay (NCI).

The subject of the first assay is HCT-116 colon. Kind of assay: NCI anticancer screen, dose series, 48 h.
For `CC1=NNC(=O)C1C1CC(c2c[nH]c3ccccc23)=NN=C1Cl` (configuration not stated), the TGI is more than 100 µM.
The same measure, in the same setting: to `COc1cc(C2c3cc4c(cc3[C@@H](Nc3ccc5c(c3)OCO5)C3COC(=O)[C@H]23)OCO4)cc(OC)c1O` (some centres not stated) belongs 15.7 µM.

In another assay the test system is U251 CNS. The assay can be described thus: NCI anticancer screen, dose series, 48 h.
For `O=C(CC(C(=O)c1ccco1)c1ccco1)c1ccco1` (configuration not stated), the TGI was more than 100 µM.
The same measure, in the same setting: to `COc1cccc2c1OCC1Cc3ccccc3OC21` (configuration not stated) belongs more than 100 µM.
Same read-out and setting: to `O=C1CS(=O)(=O)C(c2cccc(Oc3ccccc3)c2)N1c1cc(Cl)ccc1Cl` (configuration not stated) belongs 29.1 µM; to `COc1ccc(OC)c2sc(N3C(=O)/C(=C/c4cccc([N+](=O)[O-])c4)N=C3c3ccccc3)nc12`, more than 100 µM; to `CC(C)C(N)C(=O)NC(CCC(=O)NCCCCC(N)C(=O)NCCCNc1ccc([N+](=O)[O-])c2[nH]c3ccccc3c(=O)c12)C(N)=O` (configuration not stated), more than 100 µM.
Still for that read-out and setting: to `Cc1cccc(/C(Br)=C2/OC(=O)c3ccccc32)c1` belongs more than 100 µM; to `CC#CC(O)(C(=O)OC1CC(C)N(C)C(C)(C)C1)C1CCCC1` (configuration not stated), more than 100 µM.
`CC1(C)OC2COC3([C@@H]4OC(C)(C)O[C@@H]4CO)OC(C)(C)OC3C2O1` (some centres not stated) gave a TGI of more than 100 µM.
On the same count and under the same terms, to `CCOC(=O)C1CCC(=O)N1C(=O)c1ccccc1Cl` (configuration not stated) belongs more than 100 µM.
On the same count and under the same terms, to `CCOC(=O)c1ccc(Nc2nc3ccc(C(F)(F)F)cc3nc2C(=O)OCC)cc1` belongs more than 100 µM; to `COc1ccc(C2c3cc4c(cc3OC(NCCO)C2C)OCO4)cc1` (configuration not stated), 54.9 µM.
Same read-out and setting: to `COc1cc(/C=C2\CCC(C)/C(=C\c3cc(OC)c(OC)c(OC)c3)C2=O)cc(OC)c1OC` (configuration not stated) belongs more than 100 µM; to `C/C(=N\Nc1nc2ccccc2s1)c1ccc2ccccc2n1`, more than 100 µM.
The compound `CN1N=C(c2ccncc2)OC1c1ccccc1F` (configuration not stated) returned a TGI of more than 100 µM.
`O=C(/C=C/c1ccc2c(c1)OCO2)Cc1nc2ccccc2[nH]c1=O` showed a TGI of 34.2 µM.
On the same count and under the same terms, to `O=[N+]([O-])/C(Cl)=C(\NCCN/C(C(Cl)=C(Cl)Cl)=C(/Cl)[N+](=O)[O-])C(Cl)=C(Cl)Cl` belongs more than 100 µM; to `Cc1ccc(NC(=O)/C(Cc2nc3ccc([N+](=O)[O-])cc3[nH]c2=O)=N\NC(=O)C[n+]2ccccc2)c(C)c1`, more than 100 µM.
On the same count and under the same terms, to `COc1ccc(/C=N/n2c(C)nc3c(sc(=S)n3-c3ccccc3)c2=O)cc1` belongs more than 100 µM; to `CCN1C(=O)C(=C/C=C/c2ccc(N(CC)CC)cc2)C(=O)N(CC)C1=S`, more than 100 µM; to `CC1=NNC(=O)C1C1CC(c2c[nH]c3ccccc23)=NN=C1Cl` (configuration not stated), more than 100 µM.
Regarding `COc1cc(C2c3cc4c(cc3[C@@H](Nc3ccc5c(c3)OCO5)C3COC(=O)[C@H]23)OCO4)cc(OC)c1O` (some centres not stated), the TGI is 1.74 µM.

The test system of another assay is A549 NSCLC. Kind of assay: NCI anticancer screen, dose series, 48 h.
Compound `O=C(CC(C(=O)c1ccco1)c1ccco1)c1ccco1` (configuration not stated) displayed a TGI of more than 100 µM.
`COc1cccc2c1OCC1Cc3ccccc3OC21` (configuration not stated) yielded a TGI of more than 100 µM.
`O=C1CS(=O)(=O)C(c2cccc(Oc3ccccc3)c2)N1c1cc(Cl)ccc1Cl` (configuration not stated): the TGI is more than 100 µM.
As for `COc1ccc(OC)c2sc(N3C(=O)/C(=C/c4cccc([N+](=O)[O-])c4)N=C3c3ccccc3)nc12`, the TGI was more than 100 µM.
Still for that read-out and setting: to `CC(C)C(N)C(=O)NC(CCC(=O)NCCCCC(N)C(=O)NCCCNc1ccc([N+](=O)[O-])c2[nH]c3ccccc3c(=O)c12)C(N)=O` (configuration not stated) belongs more than 100 µM; to `Cc1cccc(/C(Br)=C2/OC(=O)c3ccccc32)c1`, more than 100 µM.
On to `CC#CC(O)(C(=O)OC1CC(C)N(C)C(C)(C)C1)C1CCCC1` (configuration not stated), for which the TGI is more than 100 µM.
For the compound `CC1(C)OC2COC3([C@@H]4OC(C)(C)O[C@@H]4CO)OC(C)(C)OC3C2O1` (some centres not stated), the TGI was more than 100 µM.
Compound `CCOC(=O)C1CCC(=O)N1C(=O)c1ccccc1Cl` (configuration not stated) registered a TGI of more than 100 µM.
Still for that read-out and setting: to `CCOC(=O)c1ccc(Nc2nc3ccc(C(F)(F)F)cc3nc2C(=O)OCC)cc1` belongs more than 100 µM.
`COc1ccc(C2c3cc4c(cc3OC(NCCO)C2C)OCO4)cc1` (configuration not stated): the TGI came out at 68.8 µM.
On the same count and under the same terms, to `COc1cc(/C=C2\CCC(C)/C(=C\c3cc(OC)c(OC)c(OC)c3)C2=O)cc(OC)c1OC` (configuration not stated) belongs more than 100 µM; to `COC(=O)[C@H](Cc1ccccc1)NC(=O)N(CCC#N)CCN(C(=O)N[C@@H](Cc1ccccc1)C(=O)OC)c1ccccc1`, more than 100 µM; to `C/C(=N\Nc1nc2ccccc2s1)c1ccc2ccccc2n1`, more than 100 µM.
Same read-out and setting: to `CN1N=C(c2ccncc2)OC1c1ccccc1F` (configuration not stated) belongs more than 100 µM; to `O=C(/C=C/c1ccc2c(c1)OCO2)Cc1nc2ccccc2[nH]c1=O`, 62 µM.
Same read-out and setting: to `O=[N+]([O-])/C(Cl)=C(\NCCN/C(C(Cl)=C(Cl)Cl)=C(/Cl)[N+](=O)[O-])C(Cl)=C(Cl)Cl` belongs more than 100 µM.
Take `Cc1ccc(NC(=O)/C(Cc2nc3ccc([N+](=O)[O-])cc3[nH]c2=O)=N\NC(=O)C[n+]2ccccc2)c(C)c1`: the TGI was more than 100 µM.
On the same count and under the same terms, to `COc1ccc(/C=N/n2c(C)nc3c(sc(=S)n3-c3ccccc3)c2=O)cc1` belongs more than 100 µM; to `CCN1C(=O)C(=C/C=C/c2ccc(N(CC)CC)cc2)C(=O)N(CC)C1=S`, more than 100 µM; to `CC1=NNC(=O)C1C1CC(c2c[nH]c3ccccc23)=NN=C1Cl` (configuration not stated), more than 100 µM.
Same read-out and setting: to `COc1cc(C2c3cc4c(cc3[C@@H](Nc3ccc5c(c3)OCO5)C3COC(=O)[C@H]23)OCO4)cc(OC)c1O` (some centres not stated) belongs 2.56 µM.

The test system of another assay is OVCAR-4 ovarian. The assay can be described thus: NCI anticancer screen, dose series, 48 h.
The compound `O=C(CC(C(=O)c1ccco1)c1ccco1)c1ccco1` (configuration not stated) came in with a TGI of more than 100 µM.
Still for that read-out and setting: to `CC(C)C(N)C(=O)NC(CCC(=O)NCCCCC(N)C(=O)NCCCNc1ccc([N+](=O)[O-])c2[nH]c3ccccc3c(=O)c12)C(N)=O` (configuration not stated) belongs more than 100 µM.
